Where a name gives a salt, the structure may show the parent alone.
Assay: Glycemia test at fast
Format: in vivo, Male Sprague-Dawley rats
Settings: 200 mg/kg endoperitoneal, 2 hours before the test
Method: b. Glycemia test at fast: mg/100 ml blood in toto ± E.S.
Glycemia test at fast (Repetition): mg/100 ml blood in toto ± E.S.
Treatment with the dose of 200 mg/kg endoperitoneal, 2 hours before the test.
Male Sprague-Dawley rats 150 grs.

SMILES: CCCCCCC1CCC(O)C1CCCCCCC(=O)O (centres unmarked) [Compound C83, 9-hydroxy-19,20-bis-nor-prostanoic acid sodium salt]
- Glycemia at fast (± E.S.) (controls 63.8 ± 4.1, p < 0.001): 99.3 ± 2.7 mg/100 ml blood in toto
- Glycemia at fast (Repetition) (± E.S.) (repetition, controls 81.1 ± 3.5, p < 0.01): 121.4 ± 9.8 mg/100 ml blood in toto

Source: patent US4073938A, “19,20-Bis-nor-prostenoic acids as hypolipemic compounds” (Istituto Biochimico Italiano di Loredana Lorenzini S.a.s., priority 1974, dated 1978)
